Experimental findings from US20140187548A1, “6 SUBSTITUTED IMIDAZOPYRAZINES FOR USE AS MPS-1 AND TKK INHIBITORS IN THE TREATMENT OF HYPERPROLIFERATIVE DISORDERS” (BAYER INTELLECTUAL PROPERTY GMBH, priority 2010, published 2014) are described below.

The term IC50 denotes the concentration that inhibits the measured activity by half.

The target in the assay is T1, human kinase Mps-1 (Homo sapiens, UniProt P33981).
T1 construct: N-terminally GST-tagged human full length recombinant Mps-1 kinase; GST (N); purchased Invitrogen, Karslruhe, Germany PV4071
T1 sequence (P33981 1-857): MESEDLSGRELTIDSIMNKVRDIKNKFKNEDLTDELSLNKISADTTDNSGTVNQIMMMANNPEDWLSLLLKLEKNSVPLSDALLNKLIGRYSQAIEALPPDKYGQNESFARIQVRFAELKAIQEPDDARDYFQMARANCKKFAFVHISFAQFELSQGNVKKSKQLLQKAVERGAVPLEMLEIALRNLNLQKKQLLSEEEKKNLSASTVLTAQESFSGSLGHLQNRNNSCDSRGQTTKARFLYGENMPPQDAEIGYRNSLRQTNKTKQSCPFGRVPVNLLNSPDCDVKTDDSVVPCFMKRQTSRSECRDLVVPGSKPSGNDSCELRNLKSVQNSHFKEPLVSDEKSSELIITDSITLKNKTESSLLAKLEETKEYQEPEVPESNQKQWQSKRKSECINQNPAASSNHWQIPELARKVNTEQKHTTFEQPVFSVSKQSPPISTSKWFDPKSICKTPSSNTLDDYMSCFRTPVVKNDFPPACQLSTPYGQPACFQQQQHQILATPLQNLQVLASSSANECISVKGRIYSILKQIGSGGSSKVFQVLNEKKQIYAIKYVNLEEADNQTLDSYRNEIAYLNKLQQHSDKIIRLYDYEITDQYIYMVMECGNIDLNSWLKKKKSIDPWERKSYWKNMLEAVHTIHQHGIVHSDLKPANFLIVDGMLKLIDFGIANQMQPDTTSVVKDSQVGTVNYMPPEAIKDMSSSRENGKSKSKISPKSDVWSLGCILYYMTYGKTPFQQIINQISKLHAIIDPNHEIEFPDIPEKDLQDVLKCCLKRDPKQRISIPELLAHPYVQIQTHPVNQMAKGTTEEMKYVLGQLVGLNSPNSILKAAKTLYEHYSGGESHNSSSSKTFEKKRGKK
The experiment in a line: Mps-1 kinase assay (TR-FRET). Type of assay: biochemical. The settings on record: N-terminally GST-tagged human full length recombinant Mps-1; 10 μM ATP; 1 μM peptide substrate; 15 min pre-incubation; 60 min at 22° C. Put shortly:
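N-terminally GST-tagged full-length recombinant human Mps-1, about 1 nM final, phosphorylates a biotinylated peptide. Product detected by TR-FRET from Eu-anti-phospho-Ser/Thr antibody to streptavidin-XLent after 1 h at 22° C.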
(In TR-FRET formats the signal depends on donor and acceptor labels being close together.)

Turning to `CSc1ccccc1-c1cn2c(-c3ccc(C(=O)NC4CC4)cc3)cnc2c(NCC(C)C)n1` [Example 1-70, N-cyclopropyl-4-{8-[(2-methylpropyl)amino]-6-[2-(methylsulfanyl)phenyl]imidazo[1,2-a]pyrazin-3-yl}benzamide], the IC50 turned out to be 3.2 nM. The figure for `COc1ccc(Cl)cc1-c1cn2c(-c3ccc(C(=O)NC4CC4)cc3)cnc2c(NCC(C)C)n1` [Example 1-71, 4-{6-(5-chloro-2-methoxy-phenyl)-8-[(2-methyl-propyl)amino]imidazo [1,2-a]pyrazin-3-yl}-N-cyclopropylbenzamide] is 35.9 nM. `CC(C)CNc1nc(-c2cccc(C#N)c2)cn2c(-c3ccc(C(=O)NC4CC4)cc3)cnc12` [Example 1-72, 4-{6-(3-cyanophenyl)-8-[(2-methylpropyl)amino]imidazo[1,2-a]pyrazin-3-yl}-N-cyclo-propylbenzamide]: the IC50 stood at 4.6 nM.

`CC(C)CNc1nc(-c2ccc(C#N)cc2)cn2c(-c3ccc(C(=O)NC4CC4)cc3)cnc12` [Example 1-73, 4-{6-(4-cyanophenyl)-8-[(2-methylpropyl)amino]imidazo[1,2-a]pyrazin-3-yl}-N-cyclo-propylbenzamide]: the IC50 came out at 2.1 nM. The figure for `CC(C)CNc1nc(-c2ccc3[nH]ccc3c2)cn2c(-c3ccc(C(=O)NC4CC4)cc3)cnc12` [Example 1-74, N-cyclopropyl-4-{6-(1H-indol-5-yl)-8-[(2-methyl-propyl)amino]imidazo [1,2-a]pyrazin-3-yl} benzamide] is 37.7 nM.

As for `CC(C)CNc1nc(-c2ccc(S(C)(=O)=O)cc2)cn2c(-c3ccc(C(=O)NC4CC4)cc3)cnc12` [Example 1-75, N-cyclopropyl-4-{8-[(2-methylpropyl)amino]-6-[4-(methylsulfonyl)phenyl]imidazo[1,2-a]pyrazin-3-yl}benzamide], the IC50 is 2.5 nM. Consider `CC(C)CNc1nc(-c2ccc3ncccc3c2)cn2c(-c3ccc(C(=O)NC4CC4)cc3)cnc12` [Example 1-76, N-cyclopropyl-4-{8-[(2-methylpropyl)amino]-6-(quinolin-6-yl)imidazo [1,2-a]pyrazin-3-yl} benzamide], for which the IC50 was 3.3 nM. The figure for `CC(C)CNc1nc(-c2ccccc2CO)cn2c(-c3ccc(C(=O)NC4CC4)cc3)cnc12` [Example 1-77, N-cyclopropyl-4-{6-[2-(hydroxymethyl)phenyl]-8-[(2-methylpropyl)amino]imidazo[1,2-a]pyrazin-3-yl}benzamide] is 1.2 nM; for `COc1ccc2cc(-c3cn4c(-c5ccc(C(=O)NC6CC6)cc5)cnc4c(NCC(C)C)n3)ccc2c1` [Example 1-79, N-cyclopropyl-4-{6-(6-methoxynaphthalen-2-yl)-8-[(2-methylpropyl)amino]imidazo[1,2-a]pyrazin-3-yl}benzamide] it is 32.7 nM. The result for `Cc1ccc(-c2cn3c(-c4ccc(C(=O)NC5CC5)cc4)cnc3c(NCC(C)C)n2)cc1Cl` [Example 1-80, 4-{6-(3-chloro-4-methyl-phenyl)-8-[(2-methylpropyl)amino]imidazo [1,2-a]pyrazin-3-yl}-N-cyclopropylbenzamide] reads 20.7 nM; that for `CC(C)CNc1nc(-c2ccc(OCC(C)C)cc2)cn2c(-c3ccc(C(=O)NC4CC4)cc3)cnc12` [Example 1-81, N-cyclopropyl-4-{6-[4-(2-methylpropoxy)phenyl]-8-[(2-methylpropyl)amino]imidazo[1,2-a]pyrazin-3-yl}benzamide], 347 nM; that for `CNC(=O)c1ccc(-c2cn3c(-c4ccc(C(=O)NC5CC5)cc4)cnc3c(NCC(C)C)n2)cc1Cl` [Example 1-82, 2-chloro-4-{3-[4-(cyclopropylcarbamoyl)phenyl]-8-[(2-methylpropyl)amino]imidazo[1,2-a]pyrazin-6-yl}-N-methyl benzamide], 1.6 nM. On to `CC(C)CNc1nc(-c2ccc(C(=O)NC3CC3)c(Cl)c2)cn2c(-c3ccc(C(=O)NC4CC4)cc3)cnc12` [Example 1-83, 2-chloro-N-cyclopropyl-4-{3-[4-(cyclopropyl-carbamoyl)phenyl]-8-[(2-methylpropyl)amino]imidazo[1,2-a]pyrazin-6-yl}benzamide], for which the IC50 came out at 6.9 nM.

Turning to `CC(C)CNc1nc(-c2ccc(Cl)c(C(=O)NC3CC3)c2)cn2c(-c3ccc(C(=O)NC4CC4)cc3)cnc12` [Example 1-84, 2-chloro-N-cyclopropyl-5-{3-[4-(cyclopropyl-carbamoyl)phenyl]-8-[(2-methylpropyl)amino]imidazo[1,2-a]pyrazin-6-yl}benzamide], the 50% inhibitory concentration (IC50) stood at 4.5 nM. The figure for `CC(C)CNc1nc(-c2ccc(F)c(C(=O)NC(C)C)c2)cn2c(-c3ccc(C(=O)NC4CC4)cc3)cnc12` [Example 1-85, 5-{3-[4-(cyclopropyl-carbamoyl)phenyl]-8-[(2-methylpropyl)amino]imidazo[1,2-a]pyrazin-6-yl}-2-fluoro-N-(propan-2-yl)benzamide] is 2.6 nM; for `CC(C)CNc1nc(-c2ccc(C(=O)NC(C)C)c(F)c2)cn2c(-c3ccc(C(=O)NC4CC4)cc3)cnc12` [Example 1-86, 4-{3-[4-(cyclopropyl-carbamoyl)phenyl]-8-[(2-methylpropyl)amino]imidazo[1,2-a]pyrazin-6-yl}-2-fluoro-N-(propan-2-yl)benzamide] it is 6.2 nM. Take `CC(C)CNc1nc(-c2ccc(Cl)cc2Cl)cn2c(-c3ccc(C(=O)NC4CC4)cc3)cnc12` [Example 1-87, N-cyclopropyl-4-{6-(2,4-dichlorophenyl)-8-[(2-methylpropyl)amino]imidazo[1,2-a]pyrazin-3-yl}benzamide]: the IC50 was 6.7 nM. With `Cc1cn2c(-c3ccc(C(=O)NC4CC4)cc3)cnc2c(NCC(C)C)n1` [Example 1-88, N-cyclopropyl-4-{6-methyl-8-[(2-methyl-propyl)amino]imidazo [1,2-a]pyrazin-3-yl} benzamide], the IC50 turned out to be 11.9 nM. On to `CC(C)CNc1nc(-c2ccc(N3CCNCC3)cc2)cn2c(-c3ccc(C(=O)NC4CC4)cc3)cnc12` [Example 1-89, N-cyclopropyl-4-{8-[(2-methylpropyl)amino]-6-[4-(piperazin-1-yl)phenyl]imidazo[1,2-a]pyrazin-3-yl}benzamide], for which the half-inhibitory concentration (IC50) turned out to be 2 nM. The figure for `CC(C)CNc1nc(-c2ccc(N3CCN(C)CC3)cc2)cn2c(-c3ccc(C(=O)NC4CC4)cc3)cnc12` [Example 1-90, N-cyclopropyl-4-{6-[4-(4-methylpiperazin-1-yl)phenyl]-8-[(2-methyl-propyl)amino]imidazo [1,2-a]pyrazin-3-yl} benzamide] is 1.6 nM. As for `CC(C)CNc1nc(-c2ccc(N3CCOCC3)cc2)cn2c(-c3ccc(C(=O)NC4CC4)cc3)cnc12` [Example 1-91, N-cyclopropyl-4-{8-[(2-methylpropyl)amino]-6-[4-(morpholin-4-yl)phenyl]imidazo[1,2-a]pyrazin-3-yl}benzamide], the IC50 is 1.5 nM. With `CC(C)CNc1nc(-c2ccc(N(C)C)cc2)cn2c(-c3ccc(C(=O)NC4CC4)cc3)cnc12` [Example 1-92, N-cyclopropyl-4-{6-[4-(dimethylamino)phenyl]-8-[(2-methylpropyl)amino]imidazo[1,2-a]pyrazin-3-yl}benzamide], the IC50 is 7.6 nM. The figure for `CC(C)CNc1nc(-c2ccc(F)cc2)cn2c(-c3ccc(C(=O)NC4CC4)c(Cl)c3)cnc12` [Example 1-93, 2-chloro-N-cyclopropyl-4-{6-(4-fluorophenyl)-8-[(2-methylpropyl)amino]imidazo[1,2-a]pyrazin-3-yl}benzamide] is 18 nM; for `CC(C)CNc1nc(-c2ccc(N(C)C)cc2)cn2c(-c3ccc(C(=O)NC4CC4)c(Cl)c3)cnc12` [Example 1-94, 2-chloro-N-cyclopropyl-4-{6-[4-(dimethylamino)phenyl]-8-[(2-methyl-propyl)amino]imidazo [1,2-a]pyrazin-3-yl} benzamide] it is 19.8 nM; for `CC(C)CNc1nc(-c2ccccc2CO)cn2c(-c3ccc(C(=O)NC4CC4)c(Cl)c3)cnc12` [Example 1-95, 2-chloro-N-cyclopropyl-4-{6-[2-(hydroxymethyl)phenyl]-8-[(2-methyl-propyl)amino]imidazo [1,2-a]pyrazin-3-yl} benzamide] it is 5.3 nM.

`CN(C)c1ccc(-c2cn3c(-c4ccc(C(=O)NC5CC5)c(Cl)c4)cnc3c(NCCC(F)(F)F)n2)cc1` [Example 1-96, 2-chloro-N-cyclopropyl-4-{6-[4-(dimethylamino)phenyl]-8-[(3,3,3-trifluoropropyl)amino]imidazo[1,2-a]pyrazin-3-yl}benzamide]: the IC50 came out at 22.6 nM.
